Test results published in the NIST ThermoML archive (doi:10.1016/j.jct.2007.07.002).
Several values for one entry are separate records, joined by “and”; a condition that tells them apart may be missing. Equal entries are not always repeated.

Conditions: Gas, double Helmholtz acoustic resonator

FC1(F)C(F)(F)C(F)(F)C1(F)F [octafluorocyclobutane]
Conditions	kinematic viscosity [m2/s]	speed of sound
300 K, 160.13 kPa	8.54e-07	109.85 m/s
300 K, 180.38 kPa	7.62e-07	109.17 m/s
300 K, 209.45 kPa	6.47e-07	108.13 m/s
300 K, 239.58 kPa	5.55e-07	107.04 m/s
310 K, 167.11 kPa	1.04e-06	111.91 m/s
310 K, 212.21 kPa	6.65e-07	110.44 m/s
310 K, 259.63 kPa	5.45e-07	108.88 m/s
310 K, 319.54 kPa	4.4e-07	106.84 m/s
310 K, 359.99 kPa	4.21e-07	105.47 m/s
315 K, 195.64 kPa	7.57e-07	112.23 m/s
315 K, 234.75 kPa	6.39e-07	111.1 m/s
315 K, 272.93 kPa	5.38e-07	109.92 m/s
315 K, 312.27 kPa	4.61e-07	108.66 m/s
315 K, 357.7 kPa	3.99e-07	107.16 m/s
315 K, 410.27 kPa	3.42e-07	105.34 m/s
320 K, 122.6 kPa	1.12e-06	115.18 m/s
320 K, 172.92 kPa	9.2e-07	113.83 m/s
320 K, 222.82 kPa	6.6e-07	112.47 m/s
320 K, 274.43 kPa	5.38e-07	111.03 m/s
320 K, 326.85 kPa	4.48e-07	109.44 m/s
320 K, 380.03 kPa	3.92e-07	107.76 m/s
320 K, 482.22 kPa	2.95e-07	104.31 m/s
330 K, 117.49 kPa	1.43e-06	117.54 m/s
330 K, 189.29 kPa	8.81e-07	115.79 m/s
330 K, 215.35 kPa	7.77e-07	115.12 m/s
330 K, 288.39 kPa	5.63e-07	113.25 m/s
330 K, 290.78 kPa	5.67e-07	113.11 m/s
330 K, 368.85 kPa	4.3e-07	111.06 m/s
330 K, 376.53 kPa	4.2e-07	110.78 m/s
330 K, 450.7 kPa	3.45e-07	108.71 m/s
330 K, 465.61 kPa	3.3e-07	108.18 m/s
330 K, 534.61 kPa	2.83e-07	106.13 m/s
330 K, 536.09 kPa	2.8e-07	106 m/s
330 K, 621.46 kPa	2.37e-07	103.15 m/s and 103.25 m/s
345.04 K, 244.86 kPa	7.3e-07	117.72 m/s
345.04 K, 347.35 kPa	5.14e-07	115.42 m/s
345.04 K, 445.79 kPa	3.86e-07	113.12 m/s
345.04 K, 553.32 kPa	3.05e-07	110.35 m/s
345.04 K, 652.37 kPa	2.52e-07	107.68 m/s
345.04 K, 772.66 kPa	2.06e-07	104.17 m/s
345.04 K, 881.89 kPa	1.76e-07	100.69 m/s
360 K, 216.1 kPa	9.15e-07	121.47 m/s
360 K, 407.3 kPa	4.74e-07	117.75 m/s
360 K, 609.73 kPa	3.2e-07	113.46 m/s
360 K, 802.73 kPa	2.19e-07	108.94 m/s
360 K, 1012.2 kPa	1.68e-07	103.47 m/s
360 K, 1203.3 kPa	1.35e-07	97.73 m/s
375 K, 183.85 kPa	1.12e-06	124.97 m/s
375 K, 378.87 kPa	5.53e-07	121.72 m/s
375 K, 568.99 kPa	3.54e-07	118.34 m/s
375 K, 758.63 kPa	2.59e-07	114.75 m/s
375 K, 960.1 kPa	2.05e-07	110.61 m/s
375 K, 1188.2 kPa	1.56e-07	105.48 m/s
375 K, 1402 kPa	1.28e-07	100.08 m/s
375 K, 1620.4 kPa	1.06e-07	93.75 m/s

O=C=O [carbon dioxide]
Conditions	kinematic viscosity [m2/s]	speed of sound [m/s]
220 K, 195.46 kPa	2.37e-06	231.7
220 K, 226.71 kPa	2e-06	231.05
220 K, 254.44 kPa	1.79e-06	230.53
220 K, 288.21 kPa	1.56e-06	229.81
220 K, 324.47 kPa	1.37e-06	229.07
220 K, 362.71 kPa	1.22e-06	228.29
220 K, 393.15 kPa	1.12e-06	227.64
220 K, 425.51 kPa	1.03e-06	226.95
220 K, 449.74 kPa	9.7e-07	226.42
220 K, 479.78 kPa	9.02e-07	225.76
235 K, 224.78 kPa	2.31e-06	238.87
235 K, 359.42 kPa	1.42e-06	236.69
235 K, 452.88 kPa	1.11e-06	235.12
235 K, 545.18 kPa	9.13e-07	233.52
235 K, 638.46 kPa	7.66e-07	231.87
235 K, 723.88 kPa	6.71e-07	230.31
235 K, 803.31 kPa	5.95e-07	228.81
250 K, 274.2 kPa	2.15e-06	245.57
250 K, 372.33 kPa	1.57e-06	244.25
250 K, 491.25 kPa	1.17e-06	242.62
250 K, 595.84 kPa	9.53e-07	241.15
250 K, 702.28 kPa	7.98e-07	239.62
250 K, 818.89 kPa	6.75e-07	237.9
250 K, 953.03 kPa	5.71e-07	235.87
250 K, 1060.2 kPa	5.07e-07	234.18
250 K, 1177.6 kPa	4.5e-07	232.28
250 K, 1291.6 kPa	4.03e-07	230.37
250 K, 1438.2 kPa	3.54e-07	227.81
270 K, 196.61 kPa	3.5e-06	255.77
270 K, 354.95 kPa	1.95e-06	254.13
270 K, 526.01 kPa	1.29e-06	252.3
270 K, 705.02 kPa	9.47e-07	250.33
270 K, 898.25 kPa	7.28e-07	248.16
270 K, 1076.5 kPa	5.99e-07	246.1
270 K, 1287.1 kPa	4.91e-07	243.58
270 K, 1446.7 kPa	4.31e-07	241.62
270 K, 1630 kPa	3.76e-07	239.29
270 K, 1846 kPa	3.26e-07	236.43
270 K, 2079.6 kPa	2.84e-07	233.19
270 K, 2316.1 kPa	2.49e-07	229.71
270 K, 2509.6 kPa	2.26e-07	226.69
285 K, 371.48 kPa	2.07e-06	260.81
285 K, 575.25 kPa	1.31e-06	258.96
285 K, 787.74 kPa	9.44e-07	257
285 K, 1013 kPa	7.22e-07	254.87
285 K, 1228.5 kPa	5.87e-07	252.79
285 K, 1500.4 kPa	4.72e-07	250.09
285 K, 1707.2 kPa	4.09e-07	247.98
285 K, 1947.2 kPa	3.52e-07	245.46
285 K, 2221.2 kPa	3.03e-07	242.48
285 K, 2559.7 kPa	2.58e-07	238.62
285 K, 2841.9 kPa	2.27e-07	235.23
285 K, 3057.8 kPa	2.06e-07	232.51
300 K, 313.43 kPa	2.72e-06	267.83
300 K, 531.89 kPa	1.58e-06	266.16
300 K, 748.54 kPa	1.11e-06	264.48
300 K, 993.26 kPa	8.26e-07	262.55
300 K, 1237 kPa	6.54e-07	260.6
300 K, 1526.1 kPa	5.22e-07	258.23
300 K, 1747.8 kPa	4.5e-07	256.38
300 K, 1991.5 kPa	3.9e-07	254.3
300 K, 2272.2 kPa	3.37e-07	251.86
300 K, 2577.9 kPa	2.92e-07	249.12
300 K, 2893.9 kPa	2.57e-07	246.21
300 K, 3145.8 kPa	2.33e-07	243.81
304.77 K, 317.81 kPa	2.78e-06	269.84
304.77 K, 527.05 kPa	1.65e-06	268.3
304.77 K, 745.25 kPa	1.15e-06	266.69
304.77 K, 979.77 kPa	8.66e-07	264.94
304.77 K, 1201.7 kPa	6.98e-07	263.26
304.77 K, 1478.9 kPa	5.59e-07	261.12
304.77 K, 1699.4 kPa	4.82e-07	259.4
304.77 K, 1950 kPa	4.14e-07	257.4
304.77 K, 2235.2 kPa	3.57e-07	255.09
304.77 K, 2552.7 kPa	3.07e-07	252.45
304.77 K, 2881 kPa	2.69e-07	249.66
304.77 K, 3135.9 kPa	2.44e-07	247.43
310 K, 342.08 kPa	2.66e-06	271.86
310 K, 552.05 kPa	1.63e-06	270.4
310 K, 773.76 kPa	1.15e-06	268.86
310 K, 1018 kPa	8.63e-07	267.13
310 K, 1259.3 kPa	6.9e-07	265.4
310 K, 1549 kPa	5.53e-07	263.3
310 K, 1786.6 kPa	4.75e-07	261.55
310 K, 2055.6 kPa	4.08e-07	259.54
310 K, 2363 kPa	3.49e-07	257.19
310 K, 2708.8 kPa	3e-07	254.5
310 K, 3078 kPa	2.6e-07	251.56
330 K, 201.27 kPa	5.17e-06	280.89
330 K, 402.42 kPa	2.55e-06	279.73
330 K, 626.86 kPa	1.62e-06	278.46
330 K, 846.53 kPa	1.19e-06	277.21
330 K, 1059.3 kPa	9.44e-07	276
330 K, 1333 kPa	7.43e-07	274.43
330 K, 1559.3 kPa	6.3e-07	273.12
330 K, 1813.1 kPa	5.37e-07	271.64
330 K, 2103.2 kPa	4.59e-07	269.94
330 K, 2423.4 kPa	3.94e-07	268.06
330 K, 2778.7 kPa	3.4e-07	265.94
330 K, 3067.6 kPa	3.06e-07	264.21
350 K, 234.16 kPa	4.97e-06	288.49
350 K, 440.84 kPa	2.61e-06	287.51
350 K, 660.1 kPa	1.73e-06	286.5
350 K, 905.02 kPa	1.25e-06	285.36
350 K, 1143.5 kPa	9.86e-07	284.25
350 K, 1347.8 kPa	8.31e-07	283.31
350 K, 1584.4 kPa	7.03e-07	282.2
350 K, 1873 kPa	5.9e-07	280.86
350 K, 2228.5 kPa	4.92e-07	279.21
350 K, 2447.3 kPa	4.45e-07	278.19
350 K, 2827.2 kPa	3.82e-07	276.43
350 K, 3133.8 kPa	3.42e-07	275.01
370 K, 335.49 kPa	3.82e-06	295.63
370 K, 537.7 kPa	2.37e-06	294.86
370 K, 749.31 kPa	1.7e-06	294.05
370 K, 964.83 kPa	1.31e-06	293.24
370 K, 1228.5 kPa	1.03e-06	292.24
370 K, 1449.3 kPa	8.66e-07	291.41
370 K, 1714.1 kPa	7.29e-07	290.42
370 K, 2019 kPa	6.15e-07	289.27
370 K, 2382.7 kPa	5.18e-07	287.93
370 K, 2771.7 kPa	4.42e-07	286.5
370 K, 3095.9 kPa	3.93e-07	285.31
